Test results taken from patent publication US20210145802A1, “THERAPY FOR OPHTHALMOLOGICAL CONDITIONS” (WREN THERAPEUTICS LIMITED, priority 2018, published 2021).

Columns and labels:
[1] = tested on: GMC101 (Aβ worms); conditions: GMC101, C. elegans, in vivo
Method: (§1) Briefly, Netoglitazone stocks (5 mM in 100% DMSO) were used at an appropriate concentration to seed 9-cm NGM plates. Plates were then placed in a laminar flow hood at room temperature (22° C.) for up to 4 hours to dry. C. elegans cultures were then transferred onto media seeded with compound as L4 stage or Day 3 for late treatments and incubated at 24° for the whole experiment. Experiments were carried out at different Netoglitazone concentrations ranging from 0.05 to 500 μM in 1% DMSO. As controls, plates seeded only with 1% DMSO were used.

[2] = tested on: control worms; conditions: C. elegans, in vivo
Method: as §1

[3] = tested on: GMC101 (Aβ worms); assay: Survival rate of Aβ worms; format: in vivo, C. elegans; conditions: administered at D3; D5 of adulthood
Method: as §1

[4] = tested on: CL2355 (Aβ1-42Neur worms); assay: Automated motility assay, Aβ1-42Neur worms; format: in vivo, C. elegans; conditions: compared to untreated worms
Method: as §1
All C. elegans populations were cultured at 20° C. and developmentally synchronized from a 4 h egg-lay. At 64-72 h post-egg-lay (time zero), individuals were transferred to FUDR plates, and body movements were assessed over the times indicated. At different ages, the animals were washed off the plates with M9 buffer and spread over an OP-50 unseeded 9 cm plate, after which their movements were recorded at 20 fps using a recently developed microscopic procedure (M. Perni et al., Massively parallel C. elegans tracking provides multi-dimensional fingerprints for phenotypic discovery. J. Neurosci. Methods. 306, 57-67 (2018)) for 1 min. Up to 600 animals were counted in each experiment in duplicate unless stated otherwise. […]

[5] = tested on: CL2355 (Aβ1-42Neur worms); assay: Chemotaxis assay, Aβ1-42Neur worms; format: in vivo, C. elegans; conditions: 5 μM; 5 days at 24° C.; day 6 of adulthood; compared to untreated worms
Method: Chemotaxis measurements were carried out as previously described (O. Margie, C. Palmer, I. Chin-Sang, C. elegans Chemotaxis Assay. J Vis Exp, e50069 (2013)) and as illustrated in FIG. 6C. Briefly, adult synchronized transgenic C. elegans CL2355 worms and wild-type healthy worms were incubated with or without 5 μM Netoglitazone for 5 days 24° C. At day 6 of adulthood the worms were then collected, washed with M9 buffer three times, and assayed in 9 cm screening plates (1.9% agar, 1 mM CaCl2, 1 mM MgSO4, and 25 mM phosphate buffer, pH 6.0) seeded with 50 μl of a 10× culture of Op50 Bacteria or sterile water, as attractant or test conditions, respectively and in combination with 1 μl of 1M Levamisole. Ca. 200 worms were placed in the central quadrant of the plate and incubated at 24° C. for 8 h, after which the chemotaxis index (CI) was scored. The CI was defined as follows (O. Margie et al (2013)):
(number of worms at the attractant locations−number of worms at the control locations)/total number of worms on the plate
Worms that were remaining in the central quadrant were excluded.

For `O=C1NC(=O)C(Cc2ccc3cc(OCc4ccccc4F)ccc3c2)S1` (centres unmarked) [Netoglitazone], the maximum tolerable dose [1] was “less than 50 μM”, the maximum tolerable dose [2] was less than 500 µM and the “survival rate after late administration” value [3] was “increase”. The “motility of Aβ1-42Neur worms” value [4] was “significantly improves the motility” and the chemotaxis index [5] was “significantly improved”.
